{"source": "patent US20060251574A1", "about": "“Cytotoxins and diagnostic imaging agents comprising hsp90 ligands” (priority 2002, published 2006)", "test_system": "HSP90", "procedure": "Purified native HSP90 protein (Stressgen) or cell lysates prepared in lysis buffer (20 mM Hepes, pH 7.3, 1 mM EDTA, 5 mM MgCl2, 100 mM KCl) were incubated in the absence or presence of CF7 (17-AAG) or test compound for 15 min at 4° C. […] BioMag™ streptavidin magnetic beads were then added to the mixture, and the reaction was incubated by rotating for another 1 hr at 4° C. Tubes were placed on a magnetic rack, and the unbound supernatant removed. The magnetic beads were washed three times in lysis buffer, and the washes discarded. SDS-PAGE sample buffer was added to the beads and boiled for 5 min at 95° C. Samples were analyzed on 10% SDS protein gels (Novex), and then Western blots using anti-HSP90 monoclonal antibody (Stressgen SPA-830). The bands in the Western Blots were quantitated using the Bio-rad Fluor-S Imager, and the % inhibition of binding of CF7 or test compound calculated. The IC50 reported is the concentration of the compound needed to cause half-maximal inhibition of binding. For experiments that utilized shocked HSP90, the purified HSP90 native protein was incubated for 15 min at 90° C. For experiments that utilized bis-ANS treated HSP90, the purified HSP90 protein was incubated with bis-ANS (Molecular Probes) for 30 min at 37° C."}
{"substance": "17-allylamino-geldanamycin [17-AAG]", "values": [{"measurement": "apparent binding affinity for HSP90, tumor cells versus normal cells or purified HSP90 (FIG. 4)", "setting": "BT474 lysate vs fibroblasts, RPTEC, purified HSP90", "result": "higher apparent binding affinity for HSP90 from tumor cells (BT474) than normal cells (fibroblasts, RPTEC) or purified HSP90 alone"}, {"measurement": "apparent binding affinity for HSP90, high Her2 expressing cells versus normal cells, heat-shocked or bis-ANS treated HSP90 (FIG. 5)", "setting": "SKOY-3, SKBR-3, N87 lysates", "result": "higher apparent binding affinity for HSP90 from the specific high Her2 expressing cells, SKOY-3, SKBR-3, and N87, than from normal cells, heat-shocked HSP90, or bis-ANS treated HSP90"}]}
